Molecular target: T1, human Nav1.6 (hNav1.6) (Homo sapiens, UniProt Q9UQD0)
T1 construct: expressed in transfected cells; host or cells: HEK-293
Experiment: Modulation of late sodium current (INaL), PatchXpress high throughput electrophysiology
Type: cell-based
Conditions: HEK293; 1 μM compound; HEK-293 cells expressing recombinant hNav1.6; late current evoked by 300 nM ATX-II
Protocol: Functional characterization of exemplary compounds to modulate INaL expressed by the Nav1.6 voltage-gated sodium channel was accomplished using the PatchXpress' high throughput electrophysiology platform (Molecular Devices, Sunnyvale, Calif.). HEK-293 cells expressing recombinant, human Nav1.6 (hNav1.6) were grown in DMEM/high-glucose Dulbecco's modified, 10% FBS, 2 mM sodium pyruvate, 10 mM HEPES and 400 μg/mL G418. Cells were grown to 50%-80% confluency prior to harvesting. […] The onboard liquid handling facility of the PatchXpress was used for dispensing cells and applying test compounds. Nav late currents were evoked by the application of 300 nM ATX-II. […] INaL amplitude and stability were determined by analyzing the mean current amplitude over the final 20 ms of thetest pulse. […] Percent steady-state inhibition of INaL was calculated as: [(INaL_compound)/(INaL_control)]*100, where INaL_compound and INaL_control represent INaL recorded in the presence or absence of compound, respectively.

T1 sequence (Q9UQD0 whole entry): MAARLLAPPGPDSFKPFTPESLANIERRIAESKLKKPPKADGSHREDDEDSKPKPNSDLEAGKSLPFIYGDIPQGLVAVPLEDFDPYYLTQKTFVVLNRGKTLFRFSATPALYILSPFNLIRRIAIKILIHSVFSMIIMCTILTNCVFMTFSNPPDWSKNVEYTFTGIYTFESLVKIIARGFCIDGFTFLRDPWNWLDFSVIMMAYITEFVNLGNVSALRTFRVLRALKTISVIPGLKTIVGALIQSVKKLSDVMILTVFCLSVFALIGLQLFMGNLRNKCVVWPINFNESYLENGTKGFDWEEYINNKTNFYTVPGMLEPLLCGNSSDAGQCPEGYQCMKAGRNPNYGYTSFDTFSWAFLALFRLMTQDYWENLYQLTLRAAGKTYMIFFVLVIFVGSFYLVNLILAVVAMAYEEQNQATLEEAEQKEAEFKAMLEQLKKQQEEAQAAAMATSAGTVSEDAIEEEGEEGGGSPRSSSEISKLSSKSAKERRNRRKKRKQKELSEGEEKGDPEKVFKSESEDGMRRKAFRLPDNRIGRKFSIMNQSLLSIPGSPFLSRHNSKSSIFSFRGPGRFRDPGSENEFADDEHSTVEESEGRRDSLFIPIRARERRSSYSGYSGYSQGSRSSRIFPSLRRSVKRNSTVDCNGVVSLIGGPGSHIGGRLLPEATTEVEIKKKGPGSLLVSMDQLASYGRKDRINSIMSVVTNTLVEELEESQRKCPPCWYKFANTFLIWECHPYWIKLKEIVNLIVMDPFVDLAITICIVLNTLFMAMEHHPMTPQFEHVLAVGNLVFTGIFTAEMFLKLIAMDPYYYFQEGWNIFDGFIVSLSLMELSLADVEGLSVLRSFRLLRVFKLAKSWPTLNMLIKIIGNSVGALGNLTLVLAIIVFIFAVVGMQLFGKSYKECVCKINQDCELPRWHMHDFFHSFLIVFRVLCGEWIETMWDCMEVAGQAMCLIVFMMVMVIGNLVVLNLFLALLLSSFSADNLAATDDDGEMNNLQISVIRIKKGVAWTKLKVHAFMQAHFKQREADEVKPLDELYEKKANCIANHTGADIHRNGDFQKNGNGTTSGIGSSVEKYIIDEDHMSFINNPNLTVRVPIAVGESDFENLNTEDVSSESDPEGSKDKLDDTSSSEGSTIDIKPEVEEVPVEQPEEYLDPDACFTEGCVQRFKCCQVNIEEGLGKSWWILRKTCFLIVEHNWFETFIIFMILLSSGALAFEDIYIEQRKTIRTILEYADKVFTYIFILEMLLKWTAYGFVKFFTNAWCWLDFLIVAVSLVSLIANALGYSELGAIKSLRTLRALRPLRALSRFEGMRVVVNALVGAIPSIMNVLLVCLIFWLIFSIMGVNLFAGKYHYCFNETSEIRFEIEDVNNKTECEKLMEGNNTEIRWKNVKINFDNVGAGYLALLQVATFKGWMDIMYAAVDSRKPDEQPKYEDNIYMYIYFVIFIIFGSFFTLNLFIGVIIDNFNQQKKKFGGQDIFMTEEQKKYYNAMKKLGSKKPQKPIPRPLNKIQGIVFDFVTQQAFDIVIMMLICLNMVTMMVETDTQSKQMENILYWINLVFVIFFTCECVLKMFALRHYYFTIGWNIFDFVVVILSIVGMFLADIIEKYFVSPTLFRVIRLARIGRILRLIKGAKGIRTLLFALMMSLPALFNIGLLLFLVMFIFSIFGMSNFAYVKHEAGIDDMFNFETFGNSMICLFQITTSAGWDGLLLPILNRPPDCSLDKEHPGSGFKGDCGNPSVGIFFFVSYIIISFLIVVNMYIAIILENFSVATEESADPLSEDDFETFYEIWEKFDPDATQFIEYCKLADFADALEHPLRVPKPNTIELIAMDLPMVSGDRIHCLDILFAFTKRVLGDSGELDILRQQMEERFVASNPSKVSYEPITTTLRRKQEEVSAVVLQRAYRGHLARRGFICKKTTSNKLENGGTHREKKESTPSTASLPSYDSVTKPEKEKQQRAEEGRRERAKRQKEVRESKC

| Compound | inhibition at 1 µM [%] |
| --- | --- |
| Fc1cc(-c2cn3c(C(F)(F)F)cnc3cn2)cnc1OCC(F)(F)F [Compound 36, 6-[5-fluoro-6-(2,2,2-trifluoroethoxy)-3-pyridyl]-3-(trifluoromethyl)imidazo[1,2-a]pyrazine] | > 50 |
| COCc1cc(OC(F)(F)F)ccc1-c1cn2c(C(F)(F)F)cnc2cn1 [Compound 41, 6-[2-(methoxymethyl)-4-(trifluoromethoxy)phenyl]-3-(trifluoromethyl)imidazo[1,2-a]pyrazine] | > 50 |
| FC(F)(F)Oc1ccc(-c2cc3c(C(F)(F)F)cnn3cn2)cc1 [Compound 25a, 5-[4-(trifluoromethoxy)phenyl]-3-(trifluoromethyl)pyrazolo[1,5-c]pyrimidine] | > 50 |
| Cc1cc(OC(F)(F)F)ccc1-c1cnn2ncc(C(=O)N(C)C)c2c1 [Compound 50, N,N-dimethyl-5-[2-methyl-4-(trifluoromethoxy)phenyl]pyrazolo [1,5-b]pyridazine-3-carboxamide] | < 50 |
| FC(F)(F)COc1ccc(-c2ccn3ncc(C(F)(F)F)c3c2)cn1 [Compound 45, 5-[6-(2,2,2-trifluoroethoxy)-3-pyridyl]-3-(trifluoromethyl)pyrazolo[1,5-a]pyridine] | > 50 |
| FC(F)(F)c1ccc(-c2cn3c(C(F)(F)F)cnc3cn2)cc1 [Compound 34, 3-(trifluoromethyl)-6-[4-(trifluoromethyl)phenyl]imidazo[1,2-a]pyrazine] | > 50 |
| Cc1cc(OC(F)(F)F)ccc1-c1cc2ccnn2cn1 [Compound 22, 5-[2-methyl-4-(trifluoromethoxy)phenyl]pyrazolo[1,5-c]pyrimidine] | < 50 |
| FC(F)(F)COc1ccc(-c2ccn3nccc3c2)cn1 [Compound 15, 5-[6-(2,2,2-trifluoroethoxy)-3-pyridyl]pyrazolo[1,5-a]pyridine] | > 50 |
| N#CC1(c2ccc(-c3ccn4ncc(C(F)(F)F)c4c3)cc2)CC1 [Compound 43, 1-[4-[3-(trifluoromethyl)pyrazolo[1,5-a]pyridin-5-yl]phenyl]cyclopropanecarbonitrile] | < 50 |
| FC(F)(F)Oc1ccc(-c2cnn3ncc(C(F)(F)F)c3c2)cc1 [Compound 29, 5-[4-(trifluoromethoxy)phenyl]-3-(trifluoromethyl)pyrazolo[1,5-b]pyridazine] | > 50 |
| COc1cc(OC(F)(F)F)ccc1-c1ccn2nccc2c1 [Compound 14, 5-[2-methoxy-4-(trifluoromethoxy)phenyl]pyrazolo[1,5-a]pyridine] | > 50 |
| FC(F)(F)Oc1ccc(-c2cc3c(C(F)(F)C(F)(F)F)cnn3cn2)cc1 [Compound 25b, 3-(1,1,2,2,2-pentafluoroethyl)-5-[4-(trifluoromethoxy)phenyl]pyrazolo[1,5-c]pyrimidine] | > 50 |
| FC(F)(F)Oc1ccc(-c2cn3ccnc3cn2)cc1 [Compound 20] | < 50 |
| Cc1cc(OC(F)(F)F)ccc1-c1cnc2ncc(C(F)(F)F)n2c1 [Compound 31, 6-[2-methyl-4-(trifluoromethoxy)phenyl]-3-(trifluoromethyl)imidazo[1,2-a]pyrimidine] | < 50 |
| Cc1cn2cc(-c3ccc(OC(F)(F)F)cc3)cnc2n1 [Compound 32, 2-methyl-6-[4-(trifluoromethoxy)phenyl]imidazo[1,2-a]pyrimidine] | < 50 |
| COC(C)(C)c1ccc(-c2ccn3ncc(C(F)(F)F)c3c2)cc1 [Compound 44, 5-[4-(1-methoxy-1-methyl-ethyl)phenyl]-3-(trifluoromethyl)pyrazolo[1,5-a]pyridine] | < 50 |
| FC(F)(F)Oc1ccc(-c2ccc3nccn3n2)cc1 [Compound 18] | < 50 |
| COCc1cc(OC(F)(F)F)ccc1-c1cnc2ncc(C(F)(F)F)n2c1 [Compound 30, 6-[2-(methoxymethyl)-4-(trifluoromethoxy)phenyl]-3-(trifluoromethyl)imidazo[1,2-a]pyrimidine] | < 50 |

| Compound | inhibition at 1 µM [%] |
| --- | --- |
| Cc1cc(OC(F)(F)F)ccc1-c1cnn2nccc2c1 [Compound 26, 5-[2-methyl-4-(trifluoromethoxy)phenyl]pyrazolo[1,5-b]pyridazine] | < 50 |
| FC(F)(F)Oc1ccc(-c2ccc3nccn3c2)cc1 [Compound 6] | < 50 |
| FC(F)(F)Oc1ccc(-c2cnc3ncc(C(F)(F)F)n3c2)cc1 [Compound 17] | < 50 |
| COc1cc(OC(F)(F)F)ccc1-c1ccn2ncc(C(F)(F)F)c2c1 [Compound 42, 5-[2-methoxy-4-(trifluoromethoxy)phenyl]-3-(trifluoromethyl)pyrazolo[1,5-a]pyridine] | > 50 |
| FC(F)(F)Oc1ccc(-c2cnc3nccn3c2)cc1 [Compound 16] | < 50 |
| FC(F)(F)Oc1ccc(-c2ccc3ncc(C(F)(F)F)n3n2)cc1 [Compound 19] | < 50 |
| N#CC1(c2ccc(-c3ccc4ncc(C(F)(F)F)n4c3)cc2)CC1 [Compound 5] | < 50 |
| N#CC1(c2ccc(-c3cn4c(C(F)(F)F)cnc4cn3)cc2)CC1 [Compound 35, 1-[4-[3-(trifluoromethyl)imidazo[1,2-a]pyrazin-6-yl]phenyl]cyclopropanecarbonitrile] | < 50 |
| Cc1nc2ncc(-c3ccc(OC(F)(F)F)cc3)cn2c1C(F)(F)F [Compound 33, 2-methyl-6-[4-(trifluoromethoxy)phenyl]-3-(trifluoromethyl)imidazo[1,2-a]pyrimidine] | < 50 |
| Cc1cc(OC(F)(F)F)ccc1-c1cc2c(C(F)(F)F)cnn2cn1 [Compound 23, 5-[2-methyl-4-(trifluoromethoxy)phenyl]-3-(trifluoromethyl)pyrazolo[1,5-c]pyrimidine] | < 50 |
| COC(C)(C)c1ccc(-c2ccc3ncc(C(F)(F)F)n3c2)cc1 [Compound 4] | > 50 |
| FC(F)(F)COc1ccc(-c2ccc3ncc(C(F)(F)F)n3c2)cn1 [Compound 3] | > 50 |
| FC(F)(F)Oc1ccc(-c2cc3ccnn3cn2)cc1 [Compound 24, 5-[4-(trifluoromethoxy)phenyl]pyrazolo[1,5-c]pyrimidine] | < 50 |
| COc1cc(OC(F)(F)F)ccc1-c1ccc2ncc(C(F)(F)F)n2c1 [Compound 2] | > 50 |
| FC(F)(F)Oc1ccc(-c2cnn3nccc3c2)cc1 [Compound 28, 5-[4-(trifluoromethoxy)phenyl]pyrazolo[1,5-b]pyridazine] | < 50 |
| FC(F)(F)Oc1ccc(-c2cn3c(C(F)(F)F)cnc3cn2)cc1 [Compound 21] | > 50 |
| Cc1cc(OC(F)(F)F)ccc1-c1cnn2ncc(C(F)(F)F)c2c1 [Compound 27, 5-[2-methyl-4-(trifluoromethoxy)phenyl]-3-(trifluoromethyl)pyrazolo[1,5-b]pyridazine] | < 50 |
